Active and inactive are the calls of the source. No cut-off for these calls is given here.
Legend:
CCRF-CEM = test: Cytotoxicity against human CCRF-CEM cells assessed as reduction in cell viability incubated for 72 hrs measured by […]-based colorimetric assay; assay type: functional
HepG2 = test: Cytotoxicity against human HepG2 cells assessed as reduction in cell viability incubated for 72 hrs measured by […]-based colorimetric assay; assay type: functional
HeLa = test: Cytotoxicity against human HeLa cells assessed as reduction in cell viability incubated for 72 hrs measured by […]-based colorimetric assay; assay type: functional
HL-60 = test: Cytotoxicity against human HL-60 cells assessed as reduction in cell viability incubated for 72 hrs measured by […]-based colorimetric assay; assay type: functional
Dipeptidyl peptidase 4 = Dipeptidyl peptidase 4 (Homo sapiens, UniProt P27487); test: Inhibition of SF-tagged DPP4 (unknown origin) expressed in Drosophila S2 cells using fluorogenic substrate by spectrometric analysis; assay type: cell-based
[1] = Inhibition of PREP (unknown origin) using fluorogenic substrate by spectrometric assay; design: species or system Homo sapiens

Sequence of Dipeptidyl peptidase 4 (P27487 whole entry): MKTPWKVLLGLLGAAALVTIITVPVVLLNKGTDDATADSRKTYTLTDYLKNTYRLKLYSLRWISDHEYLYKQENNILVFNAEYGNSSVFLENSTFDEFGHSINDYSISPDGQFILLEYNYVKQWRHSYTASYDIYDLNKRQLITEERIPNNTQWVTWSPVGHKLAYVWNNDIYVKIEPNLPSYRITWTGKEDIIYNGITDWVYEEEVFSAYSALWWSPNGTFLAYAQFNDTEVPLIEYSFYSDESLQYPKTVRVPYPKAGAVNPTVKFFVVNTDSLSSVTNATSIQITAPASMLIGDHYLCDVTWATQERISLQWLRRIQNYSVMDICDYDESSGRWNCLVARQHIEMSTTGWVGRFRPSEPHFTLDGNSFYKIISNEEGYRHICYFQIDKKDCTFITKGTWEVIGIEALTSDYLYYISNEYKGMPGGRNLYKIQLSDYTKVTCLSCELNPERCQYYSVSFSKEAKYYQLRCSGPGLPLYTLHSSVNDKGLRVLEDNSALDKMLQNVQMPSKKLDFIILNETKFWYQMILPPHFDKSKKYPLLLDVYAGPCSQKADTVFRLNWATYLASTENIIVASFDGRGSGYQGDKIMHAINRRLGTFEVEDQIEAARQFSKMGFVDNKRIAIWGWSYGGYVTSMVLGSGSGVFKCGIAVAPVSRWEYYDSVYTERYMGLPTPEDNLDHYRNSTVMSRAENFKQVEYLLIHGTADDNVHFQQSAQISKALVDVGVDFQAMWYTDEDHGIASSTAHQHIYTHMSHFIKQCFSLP

IC50 (Dipeptidyl peptidase 4) | IC50 [1] | Structure (SMILES) | Activity (CCRF-CEM) | Activity (HepG2) | Activity (HeLa) | Activity (HL-60)
– | – | CNC(=O)CNC(=O)C(=O)[C@@H]1CCCN1C(=O)CNC(=O)c1ccnc2ccccc12 | inactive | inactive | inactive | inactive
– | – | COc1ccc(CNC(=O)CNC(=O)C(=O)[C@@H]2CCCN2C(=O)CNC(=O)c2ccnc3ccccc23)cc1OC | inactive | inactive | inactive | inactive
– | – | COC(=O)C(C)NC(=O)C(=O)[C@@H]1CCCN1C(=O)CNC(=O)c1ccnc2ccccc12 (mixture of isomers) | inactive | inactive | inactive | inactive
– | – | O=C(CNC(=O)C(=O)[C@@H]1CCCN1C(=O)CNC(=O)c1ccnc2ccccc12)NCc1ccccc1 | inactive | inactive | inactive | inactive
– | – | COC(=O)[C@H](CC(=O)OCc1ccccc1)NC(=O)CNC(=O)C(=O)[C@@H]1CCCN1C(=O)CNC(=O)c1ccnc2ccccc12 | inactive | inactive | inactive | inactive
– | – | O=C(NC12CC3CC(CC(C3)C1)C2)C(=O)[C@@H]1CCCN1C(=O)CNC(=O)c1ccnc2ccccc12 | inactive | inactive | inactive | inactive
– | – | COC(=O)[C@H](CO)NC(=O)CNC(=O)C(=O)[C@@H]1CCCN1C(=O)CNC(=O)c1ccnc2ccccc12 | inactive | inactive | inactive | inactive
– | – | O=C(NCC(=O)N1CCCC1)C(=O)[C@@H]1CCCN1C(=O)CNC(=O)c1ccnc2ccccc12 | inactive | inactive | inactive | inactive
– | – | O=C(NC1CCCCC1)C(=O)[C@@H]1CCCN1C(=O)CNC(=O)c1ccnc2ccccc12 | inactive | inactive | inactive | inactive
– | – | COC(=O)[C@H](CCCCN)NC(=O)CNC(=O)C(=O)[C@@H]1CCCN1C(=O)CNC(=O)c1ccnc2ccccc12 | inactive | inactive | inactive | inactive
– | – | CCCCCCNC(=O)CNC(=O)C(=O)[C@@H]1CCCN1C(=O)CNC(=O)c1ccnc2ccccc12 | inactive | inactive | inactive | inactive
– | – | O=C(CNC(=O)C(=O)[C@@H]1CCCN1C(=O)CNC(=O)c1ccnc2ccccc12)NC1CC1 | inactive | inactive | inactive | inactive
– | – | CN(C)C(=O)CNC(=O)C(=O)[C@@H]1CCCN1C(=O)CNC(=O)c1ccnc2ccccc12 | inactive | inactive | inactive | inactive
– | – | CCOC(=O)CNC(=O)C(=O)[C@@H]1CCCN1C(=O)CNC(=O)c1ccnc2ccccc12 | inactive | inactive | inactive | inactive
– | – | COC(=O)[C@H](CC(C)C)NC(=O)CNC(=O)C(=O)[C@@H]1CCCN1C(=O)CNC(=O)c1ccnc2ccccc12 | inactive | inactive | inactive | inactive
> 4000 nM | 0.49 nM | O=C(NCC(=O)N1CCOCC1)C(=O)[C@@H]1CCCN1C(=O)CNC(=O)c1ccnc2ccccc12 | inactive | inactive | inactive | inactive
– | 310 nM | N#C[C@@H]1CC(F)(F)CN1C(=O)CNC(=O)c1ccnc2ccccc12 | – | – | – | –
> 4000 nM | 320 nM | N#C[C@@H]1CCCN1C(=O)CNC(=O)c1ccnc2ccccc12 | – | – | – | –
– | – | COC(=O)CNC(=O)CNC(=O)C(=O)[C@@H]1CCCN1C(=O)CNC(=O)c1ccnc2ccccc12 | inactive | inactive | inactive | inactive
– | – | COc1cccc(CNC(=O)C(=O)[C@@H]2CCCN2C(=O)CNC(=O)c2ccnc3ccccc23)c1 | inactive | inactive | inactive | inactive
– | – | O=CCNC(=O)CNC(=O)C(=O)[C@@H]1CCCN1C(=O)CNC(=O)c1ccnc2ccccc12 | inactive | inactive | inactive | inactive

IC50 (Dipeptidyl peptidase 4) | IC50 [1] | Structure (SMILES) | Activity (CCRF-CEM) | Activity (HepG2) | Activity (HeLa) | Activity (HL-60)
– | – | O=C(NCCc1ccccc1)C(=O)[C@@H]1CCCN1C(=O)CNC(=O)c1ccnc2ccccc12 | inactive | inactive | inactive | inactive
– | – | COC(=O)CNC(=O)C(=O)[C@@H]1CCCN1C(=O)CNC(=O)c1ccnc2ccccc12 | inactive | inactive | inactive | inactive
– | – | COC(=O)c1ccc(NC(=O)C(=O)[C@@H]2CCCN2C(=O)CNC(=O)c2ccnc3ccccc23)cc1 | inactive | inactive | inactive | inactive
> 3000 nM | 0.53 nM | CC(C)(C)OC(=O)CNC(=O)C(=O)[C@@H]1CCCN1C(=O)CNC(=O)c1ccnc2ccccc12 | inactive | inactive | inactive | inactive
> 4000 nM | 0.29 nM | COC(=O)[C@H](CCCCNC(=O)OCc1ccccc1)NC(=O)CNC(=O)C(=O)[C@@H]1CCCN1C(=O)CNC(=O)c1ccnc2ccccc12 | inactive | inactive | inactive | inactive
– | – | CC(C)(C)CNC(=O)C(=O)[C@@H]1CCCN1C(=O)CNC(=O)c1ccnc2ccccc12 | inactive | inactive | inactive | inactive
> 4000 nM | 0.66 nM | Cc1ccc(CNC(=O)C(=O)[C@@H]2CCCN2C(=O)CNC(=O)c2ccnc3ccccc23)c(C)c1 | inactive | inactive | inactive | inactive
– | – | CC(C)NC(=O)C(=O)[C@@H]1CCCN1C(=O)CNC(=O)c1ccnc2ccccc12 | inactive | inactive | inactive | inactive
– | – | COC(=O)[C@H](CCC(=O)NCc1ccccc1)NC(=O)CNC(=O)C(=O)[C@@H]1CCCN1C(=O)CNC(=O)c1ccnc2ccccc12 | inactive | inactive | inactive | inactive
– | 0.4 nM | CCCCCNC(=O)C(=O)[C@@H]1CCCN1C(=O)CNC(=O)c1ccnc2ccccc12 | inactive | inactive | inactive | inactive
– | – | O=C(NC1CC1)C(=O)[C@@H]1CCCN1C(=O)CNC(=O)c1ccnc2ccccc12 | inactive | inactive | inactive | inactive
> 4000 nM | 0.73 nM | CC(C)(C)NC(=O)CNC(=O)C(=O)[C@@H]1CCCN1C(=O)CNC(=O)c1ccnc2ccccc12 | inactive | inactive | inactive | inactive
– | – | COc1ccc(CNC(=O)C(=O)[C@@H]2CCCN2C(=O)CNC(=O)c2ccnc3ccccc23)cc1 | inactive | inactive | inactive | inactive
– | – | COC(=O)C(NC(=O)C(=O)[C@@H]1CCCN1C(=O)CNC(=O)c1ccnc2ccccc12)C(C)C (some centres undefined) | inactive | inactive | inactive | inactive
– | – | COC(=O)[C@H](CCC(N)=O)NC(=O)CNC(=O)C(=O)[C@@H]1CCCN1C(=O)CNC(=O)c1ccnc2ccccc12 | inactive | inactive | inactive | inactive
> 3000 nM | 0.26 nM | O=C(NCc1ccc(F)cc1)C(=O)[C@@H]1CCCN1C(=O)CNC(=O)c1ccnc2ccccc12 | inactive | inactive | inactive | inactive
– | – | O=C(NC(c1ccccc1)c1ccccc1)C(=O)[C@@H]1CCCN1C(=O)CNC(=O)c1ccnc2ccccc12 | inactive | inactive | inactive | inactive
– | – | CC(C)NC(=O)CNC(=O)C(=O)[C@@H]1CCCN1C(=O)CNC(=O)c1ccnc2ccccc12 | inactive | inactive | inactive | inactive
– | – | COc1ccc(NC(=O)C(=O)[C@@H]2CCCN2C(=O)CNC(=O)c2ccnc3ccccc23)cc1 | inactive | inactive | inactive | inactive
> 4000 nM | 1.3 nM | COC(=O)[C@H](CCC(=O)O)NC(=O)CNC(=O)C(=O)[C@@H]1CCCN1C(=O)CNC(=O)c1ccnc2ccccc12 | inactive | inactive | inactive | inactive
